Laboratory results published in patent US6887853B2, “Use of geldanamycin and related compounds for treatment of fibrogenic disorders” (The Trustees of Boston University, priority 2000, dated 2005).

Columns and labels:
[1] = tested on: Smad DNA-binding activity; assay: Electrophoretic mobility shift assay, Smad binding element (SBE), 3T3 nuclear extracts; type: cell-based, mouse; settings: 15 minute TGF-β treatment alone
Description: (A) Cells were harvested and subjecting to electrophoretic mobility shift analysis using a Smad binding element (SBE). […] Where indicated, extracts were prepared with 100-fold higher levels of cold competitor probe. (B) Cells were subjected to 24 hour treatments with geldanamycin at various concentrations and extracts prepared and bound to control Oct-1-binding duplex oligos to monitor non-specific effects of geldanamycin.
Protein concentrations of extracts were determined using the BCA reagent (Pierce). […] The probes were end-labeled using γ-^32P-ATP and T4 polynucleotide kinase. Electrophoretic mobility shift assays (EMSA) were performed using 5 μg nuclear extract, 1 μl poly dI/dC (1 mg/ml), 0.1 ng of labeled probe (in 1 μl), and buffer G to achieve a final volume of 10 μl. Buffer G consists of 20 mM Hepes (pH 7.6), 100 mM KCl, 0.2 mM EDTA and 20% glycerol. Extracts and oligo were incubated 15 minutes at room temperature before adding loading buffer and running on a non-denaturing gel.
Electrophoretic mobility shift assays were performed to examine whether geldanamycin reduced the level of Smad DNA-binding activity in nuclear extracts. As before, cells were also subjected to TGF-β or TGF-β and geldanamycin together. […]

[2] = tested on: TGF-β-sensitive promoter in the 3TPlux construct; assay: TGF-β-sensitive 3TPlux luciferase reporter in transfected NIH 3T3 cells; type: cell-based, mouse; settings: NIH 3T3, TGF-β by itself, 24 hour
Description: (§1) The latter contains a 4.5 kb fragment of the PN1 promoter driving the luciferase gene. Cells were incubated for 24 hours after transfection, washed 3 times with PBS and then subjected to a 24 hour treatment with geldanamycin, TGF or both, as indicated. Cells were then harvested and luciferase activities determined; Transient transfections were performed using lipofectamine (Gibco BRL) as follows: 10 μg (total) of indicated plasmid DNA was mixed with 30 μl of lipofectamine and 500 μl of serum-free DMEM (Gibco). This mixture was incubated at room temperature for 20 minutes. Ten cm dishes of sub-confluent 3T3 fibroblasts were rinsed with PBS, and 5 ml of serum free DMEM added to each dish. The DNA/lipofectamine mixture was added to each dish and incubated in the 37° CO2 incubator for 4 hours. Ten ml of DMEM with 15% serum was added and plates were incubated overnight. Medium was replaced with 10% serum at 24 hours and extracts of cells were harvested at 48 hours. Cell extracts were obtained using Passive Lysis Buffer (Promega) and assays were performed according to the Promega protocol for pGL3 luciferase vectors. Protein concentrations of all extracts were determined and each luciferase reading is normalized for protein concentration. The 4.7 kb human MMP1 promoter driving luciferase was a gift of Constance Brinckerhoff (Dartmouth Medical School) (36). […]

PN1 promoter = assay: Protease nexin 1 (PN1) promoter luciferase reporter in transfected NIH 3T3 cells; type: cell-based, mouse; settings: NIH 3T3, TGF-β alone, 24 hour
Description: as §1

[3] = tested on: endogenous collagen transcript in mouse 3T3 cells; assay: Northern analysis of endogenous α1(I) collagen message, NIH 3T3 fibroblasts; type: cell-based; settings: TGF-β alone, 24 hour
Description: FIGS. 7A-7C show fibroblasts subjected to 24-hour treatments with geldanamycin, TGF or both. After 24 hours, total RNA was harvested and subjected to northern analysis using an α1(I) collagen probe. (A) Northern analysis using NIH 3T3 fibroblasts. (B) Northern analysis using primary healthy human dermal fibroblasts. (C) Methylene blue staining of the filter in (B). Numbers represent relative intensities of the lower collagen band after normalizing bands to GAPDH band intensity; The clone corresponding to Hsp90-α was purchased as an EST from Genome Systems. […] Sequencing was performed at the Boston University DNA/Protein Sequencing Core. Northern analysis of Hsp90 to total RNA from scleroderma and healthy fibroblasts was performed as previously described (10). Geldanamycin was a generous gift of the National Cancer Institute. Geldanamycin was dissolved in dimethylsulfoxide (DMSO) and used at a final concentration of 2 μM except where indicated otherwise. DMSO without geldanamycin was added as the carrier control for all experiments using geldanamycin. The chaperone function of Hsp90 is dependent on the hydrolysis of ATP (44). […] Geldanamycin was examined to determine whether its inhibition of Hsp90 affected TGF-β activation of collagen transcription in mouse 3T3 and human dermal fibroblasts. Endogenous collagen message levels were used as a measure of TGF-β signal transduction. […]

For TGF-β, the “nuclear Smad after TGF-β treatment” value [1] was “modest increase”, the “induction of the activity of the 3TPlux promoter” value [2] was 3.5 fold and the “effect of TGF-β on the expression of the PN1 promoter” value (PN1 promoter) was “little effect”. The “increase of endogenous collagen transcript level” value ([3]; NIH 3T3, absence of serum) was “approximately 6 fold” and the “increase of endogenous collagen transcript level” value ([3]; NIH 3T3, presence of serum) was 2 fold.
